Earlier results in US11426379B2, “Combination of local and systemic therapies for enhanced treatment of dermatologic conditions” (The Rockefeller University, priority 2017, dated 2022).

Test system: rabbit skin
Settings: intradermal injection, presence of light, reversible with beta-carotene

O=C1OC2(c3cc(I)c(O)c(I)c3Oc3c2cc(I)c(O)c3I)c2c(Cl)c(Cl)c(Cl)c(Cl)c21 [rose bengal, 4,5,6,7-tetrachloro-2′,4′,5′,7′-tetraiodofluorescein]
polymorphonuclear leukocyte accumulation, histamine release and erythema: polymorphonuclear leukocyte accumulation and histamine release with accompanying increased erythema
